This is an account of results in PubChem BioAssay (NCI).

Molecules are shown by their SMILES.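 Protocol summary: plate cells (96-well), add compound at 5 concentrations, incubate 48 h, interpolate endpoints linearly. TGI is the concentration that stops growth completely.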

Some test systems named below: K-562 leukemia; A549 NSCLC; COLO 205 colon; MCF7 breast; OVCAR-4 ovarian; OVCAR-5 ovarian; MALME-3M melanoma; SW-620 colon; SF-268 CNS; SN12C renal.
Assay in all cases: inhibition of tumour cell growth, NCI panel, 48 h

For `CCO/C(O)=c1/s/c(=C2/SC(=S)N(c3ccc(C)cc3)C2=O)n(-c2ccccc2)c1=N`, the TGI with K-562 leukemia was greater than 100 µM; with A549 NSCLC, greater than 100 µM; in the assay on COLO 205 colon it was greater than 100 µM; with MCF7 breast it was greater than 100 µM; in the assay on OVCAR-4 ovarian, 44.3 µM; with OVCAR-5 ovarian, greater than 100 µM. Further, the TGI is greater than 100 µM in the assay with MALME-3M melanoma, greater than 100 µM in the assay on SW-620 colon, greater than 95.8 µM in the assay on SF-268 CNS and greater than 100 µM in the assay on SN12C renal.
With `Cc1cccc(C)c1NC(=S)N/C=C(\C#N)C(N)=O`, the TGI in the assay with K-562 leukemia, in the assay with A549 NSCLC, in the assay with COLO 205 colon, in the assay on MCF7 breast, in the assay with OVCAR-4 ovarian and with OVCAR-5 ovarian was greater than 100 µM throughout. Moreover, the TGI in the assay with MALME-3M melanoma, with SW-620 colon, in the assay on SF-268 CNS and in the assay with SN12C renal was greater than 100 µM in each case.
Take `c1ccc(CCCN2C3CCC2CN(CCOC(c2ccccc2)c2ccccc2)C3)cc1`: the TGI in the assay on K-562 leukemia was found to be 64 µM; with A549 NSCLC, 27.2 µM; in the assay on COLO 205 colon, 4.36 µM; with MCF7 breast, 25.8 µM; in the assay with OVCAR-4 ovarian, 28.4 µM; in the assay with OVCAR-5 ovarian, 25.8 µM. In addition, the TGI in the assay on MALME-3M melanoma came to 25.2 µM; in the assay on SW-620 colon it was 44.8 µM; in the assay with SF-268 CNS, 29.2 µM; in the assay with SN12C renal, 24.8 µM.
As for `CCOC(=O)CCCN`, the TGI in the assay with K-562 leukemia, in the assay on A549 NSCLC, with COLO 205 colon, in the assay on MCF7 breast, in the assay on OVCAR-4 ovarian and in the assay with OVCAR-5 ovarian was greater than 100 µM each time. In addition, the TGI in the assay on MALME-3M melanoma, in the assay with SW-620 colon, in the assay on SF-268 CNS and in the assay on SN12C renal was greater than 100 µM throughout.
As for `CC1=NN(c2ccccc2)C(=O)/C1=C1\SC(c2ccccc2)(c2ccccc2)c2ccccc21`, the TGI with K-562 leukemia, in the assay on A549 NSCLC, with COLO 205 colon, in the assay on MCF7 breast, with OVCAR-4 ovarian and in the assay on OVCAR-5 ovarian was greater than 100 µM each time. Besides, the TGI with MALME-3M melanoma, in the assay with SW-620 colon, with SF-268 CNS and in the assay on SN12C renal was greater than 100 µM each time.
As for `CCOC(=O)N1CCC2(CC1)C[C@](Sc1ccccc1)(C(C)=O)[C@H](C)O2`, the TGI with K-562 leukemia, in the assay with A549 NSCLC, in the assay with COLO 205 colon, with MCF7 breast, with OVCAR-4 ovarian and in the assay with OVCAR-5 ovarian was greater than 100 µM each time. For the same molecule, the TGI in the assay with MALME-3M melanoma, with SW-620 colon and with SF-268 CNS was greater than 100 µM each time.
Turning to `COc1cc(/C=C2\CC3C4CC=C5C[C@@H](O)CC[C@]5(C)C4CC[C@]3(C)\C2=N\O)cc(OC)c1OC` (stereo partly drawn), the TGI with K-562 leukemia is greater than 100 µM; in the assay on A549 NSCLC, greater than 100 µM; in the assay on COLO 205 colon it was 16.9 µM; in the assay on MCF7 breast, 15 µM; in the assay on OVCAR-4 ovarian, 68.8 µM; in the assay on OVCAR-5 ovarian it was 61.1 µM. Also, the TGI in the assay with MALME-3M melanoma was 50 µM; with SW-620 colon, greater than 100 µM; in the assay with SF-268 CNS it was greater than 100 µM; in the assay on SN12C renal, 54.1 µM.
With `CCOC(=O)c1ccc(-c2onc(C)c2Br)[nH]1`, the TGI in the assay with K-562 leukemia, in the assay with A549 NSCLC, with COLO 205 colon, in the assay with MCF7 breast, in the assay on OVCAR-4 ovarian and with OVCAR-5 ovarian was greater than 100 µM throughout. For the same molecule, the TGI in the assay on MALME-3M melanoma, in the assay on SW-620 colon and in the assay on SF-268 CNS was greater than 100 µM throughout.
Consider `O=C(O)CSC1=NCCN1`, for which the TGI in the assay with K-562 leukemia, in the assay on A549 NSCLC, with COLO 205 colon, with MCF7 breast, in the assay on OVCAR-4 ovarian and in the assay with OVCAR-5 ovarian was greater than 100 µM in each case. The TGI in the assay on MALME-3M melanoma, in the assay on SW-620 colon, in the assay with SF-268 CNS and in the assay with SN12C renal was greater than 100 µM in each case.
For the molecule `c1ccc(C/C(=N\Nc2nc3ccccc3[nH]2)c2ccccn2)cc1`, the TGI in the assay on K-562 leukemia is greater than 100 µM; with A549 NSCLC, 11.9 µM; in the assay on MCF7 breast, 0.607 µM; with OVCAR-4 ovarian, 10.4 µM; in the assay with OVCAR-5 ovarian it was 8.14 µM; in the assay with MALME-3M melanoma, 2.23 µM. Besides, the figures for the TGI with SW-620 colon, with SF-268 CNS and in the assay with SN12C renal were 15.1 µM, 12 µM and 10.9 µM, respectively.
Consider `COc1cc2c(c3nc4ccccc4nc13)-c1ccc(SC)c(=O)cc1[C@@H](NC(C)=O)CC2`, for which the TGI in the assay with K-562 leukemia was greater than 100 µM; with A549 NSCLC, greater than 100 µM; with COLO 205 colon, 0.419 µM; in the assay on MCF7 breast, greater than 100 µM; in the assay on OVCAR-4 ovarian, greater than 69.2 µM; with OVCAR-5 ovarian it was greater than 100 µM. For the same molecule, the TGI in the assay with MALME-3M melanoma is 0.0861 µM; with SW-620 colon, greater than 100 µM; in the assay with SF-268 CNS, greater than 100 µM; with SN12C renal it was greater than 100 µM.
Consider `CN1CCN(c2n[nH]c(=O)c3c2nnn3Cc2ccccc2)CC1`, for which the TGI with K-562 leukemia, with A549 NSCLC, in the assay with COLO 205 colon, in the assay on MCF7 breast, with OVCAR-4 ovarian and in the assay on MALME-3M melanoma was greater than 100 µM in each case. The TGI in the assay on SF-268 CNS and with SN12C renal was greater than 100 µM in each case.
Turning to `OC1C2CN3CCN(C2)CC1(c1ccccc1)C3` (stereo not drawn), the TGI in the assay on K-562 leukemia, with COLO 205 colon, in the assay on MCF7 breast, with OVCAR-4 ovarian, in the assay with OVCAR-5 ovarian and with MALME-3M melanoma was greater than 100 µM each time. Moreover, the TGI in the assay on SW-620 colon, with SF-268 CNS and with SN12C renal was greater than 100 µM in each case.
Consider `CCN1CC2=C(OC(N)=C(C#N)C2c2ccc(Cl)cc2)/C(=C/c2ccc(Cl)cc2)C1` (stereo not drawn), for which the TGI with K-562 leukemia is greater than 100 µM; in the assay on A549 NSCLC, 49.1 µM; in the assay with COLO 205 colon it was greater than 100 µM; in the assay with MCF7 breast, greater than 100 µM; in the assay on OVCAR-4 ovarian, greater than 100 µM; in the assay on OVCAR-5 ovarian it was greater than 100 µM. Moreover, the results for the TGI in the assay with MALME-3M melanoma, in the assay on SW-620 colon and in the assay with SF-268 CNS were 84.7 µM, greater than 100 µM and 49.6 µM, respectively.
